Results taken from patent US20230172984A1, “CLEARANCE OF SENESCENT CELLS BY ACTIVATION OF iNKT CELLS” (THE REGENTS OF THE UNIVERSITY OF CALIFORNIA, priority 2020, published 2023).

Key:
Type in all cases: in vivo, mouse
[1] = system: lung parenchymal iNKT cells; test: Bleomycin-induced lung injury model, flow cytometry of lung iNKT cells; conditions: bleomycin-injured mice, GalCer day 10, harvest day 14; FIG. 4C
Procedure: MATERIALS AND METHODS. Mouse husbandry. All procedures involving mice were performed according to the IACUC standards following ethics approval by the animal committee at the University of California, San Francisco. Male C57BL6/J on chow or HFD fed mice. HFD mice were fed a high-fat diet (60% kcal from fat) from 6 weeks until 22 weeks of age. All experiments on HFD mice were performed at 22-24 weeks total age (16-18 weeks on HFD). Age-matched male C57BL6/J mice on standard rodent chow diet were used as controls. For the lung injury model, 10-week-old male C57BL/6J mice were used. The animals were divided into three groups: the control group, the injured group, and the α-GalCer treated group. The animals in the control group received vehicle only (i.p.) on day 10. The injured group animals received bleomycin (3 U/kg) via the intratracheal route at the start of the experiment (day 0). The animals in the α-GalCer treated groups received bleomycin (3 U/kg) on day 0, and i.p. injection of α-GalCer (2 μg/mouse) on day 10. […]
Flow cytometry of iNKT cells. eWAT SVF cells were stained with PBS57 (α-GalCer-analog) loaded onto CD1d-PE tetramers prepared by the NIH Tetramer Core and anti-CD3-APC. […] For lung, 1×10^6 cells from each sample were used to quantify iNKT cells. […]

[2] = Bleomycin lung injury survival study; conditions: bleomycin 4 U/kg intratracheal, α-GalCer or vehicle at day 5, vs vehicle-injected mice; FIG. 4E
From the text: Bleomycin lung injury. For measurement of lung collagen, 3 U/kg Bleomycin was instilled intratracheally, with injection of α-GalCer or vehicle at day 10, followed by lung harvest for hydroxyproline assay at 20 days. For the survival study, 4 U/kg Bleomycin was instilled intratracheally, with injection of α-GalCer or vehicle at day 5.

[3] = system: Cdkn2a^Ink4a, Ccl2, Serpine1 mRNA; test: Bleomycin-induced lung injury model, qRT-PCR of senescence and SASP markers in CD45-depleted lung cells; conditions: bleomycin-injured mice, GalCer day 10, harvest day 14; FIG. 4B
Procedure: MATERIALS AND METHODS. Mouse husbandry. All procedures involving mice were performed according to the IACUC standards following ethics approval by the animal committee at the University of California, San Francisco. Male C57BL6/J on chow or HFD fed mice. HFD mice were fed a high-fat diet (60% kcal from fat) from 6 weeks until 22 weeks of age. All experiments on HFD mice were performed at 22-24 weeks total age (16-18 weeks on HFD). Age-matched male C57BL6/J mice on standard rodent chow diet were used as controls. For the lung injury model, 10-week-old male C57BL/6J mice were used. The animals were divided into three groups: the control group, the injured group, and the α-GalCer treated group. The animals in the control group received vehicle only (i.p.) on day 10. The injured group animals received bleomycin (3 U/kg) via the intratracheal route at the start of the experiment (day 0). The animals in the α-GalCer treated groups received bleomycin (3 U/kg) on day 0, and i.p. injection of α-GalCer (2 μg/mouse) on day 10. […] RNA extraction and Quantitative reverse transcriptase PCR.RNA was extracted with RNA extraction reagent using the commercial total RNA micro-prep kit according to the product instructions. Total RNA was quantified by nanovolume photospectrometer and fluorometer. […] Quantification was performed using with the delta-delta CT method, using Cyclophilin A (Ppia) as a housekeeping gene.

CCCCCCCCCCCCCCCCCCCCCCCCCC(=O)N[C@@H](CO[C@H]1O[C@H](CO)[C@H](O)[C@H](O)[C@H]1O)[C@H](O)[C@H](O)CCCCCCCCCCCCCC [GalCer, alpha-Galactosylceramide]
lung parenchymal iNKT cells (proportion of T cells) [1]: induced expansion of lung parenchymal iNKT cells
mortality (Kaplan Meier survival) [2]: significantly reduced
mRNA levels of senescence (Cdkn2a^Ink4a) and SASP (Ccl2, Serpine1) markers in CD45^− lung cells [3]: reduced mRNA levels of these marker genes
